This experiment deals with T1, Gaussia luciferase (GLuc) (Gaussia princeps (in: crustaceans), UniProt Q9BLZ2).
T1 sequence (Q9BLZ2 18-185): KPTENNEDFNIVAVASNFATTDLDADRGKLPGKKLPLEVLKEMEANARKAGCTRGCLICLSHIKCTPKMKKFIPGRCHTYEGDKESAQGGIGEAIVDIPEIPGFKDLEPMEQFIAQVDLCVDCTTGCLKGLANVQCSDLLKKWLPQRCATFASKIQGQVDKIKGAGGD
The experiment can be described thus: bioluminescence inhibition assay. It counts as biochemical.

The values below come from publication doi:10.1101/2022.10.01.510427v1 (biorxiv, 2022).

Take `O=c1n(Cc2ccc(O)cc2)nc2c(Cc3ccccc3)nc(-c3ccc(O)cc3)cn12` [Aza-CTZ]: the half-maximal inhibitory concentration (IC50) (as a rule, the concentration needed to halve the response being measured) was 10 to 100 µM.
